Laboratory results taken from patent publication US20080248008A1, “Inhibitors of Protein Kinase a Anchoring” (priority 2004, published 2008).

Legend:
[1] = target: T1, PKA type I in lipid rafts of human peripheral blood T cells (Homo sapiens, UniProt P10644); assay: PKA type I content of lipid rafts from human T cells (immunoblot densitometry); assay type: cell-based; settings: n=4; for reduction of PKA type I in lipid rafts: 12 hours
T1 construct: endogenous in cells; host or cells: human peripheral blood T cells
Description: Lipid Raft Purification. Isolation of lipid rafts or glycolipid-enriched membrane microdomains was performed as described in detail elsewhere (Zhang, W. et al., 1998, Immunity 9:239-246). In brief, cells were homogenized in 1 ml ice-cold lysis buffer (50 mM Hepes, pH 7.4, 100 mM NaCl, 5 mM EDTA, […], 10 mM sodium pyrophosphate, 1 mM Na3VO4, 50 mM NaF, 1 mM PMSF, and protease inhibitors) by 10 pestle strokes in a Dounce homogenizer, loaded at the bottom of a 40-5% sucrose gradient and centrifuged at 200,000 g for 5 or 20 h. 80 μl or 0.4-ml fractions were collected from the top. The fractions were analysed by immunoblot analysis. LAT was used as a marker for lipid raft fractions.
Isolation of T cells. Human peripheral blood T cells were purified by negative selection (95-98% pure) as described (Aandahl E M et al., 1998, FASEB J. 12:855-62). Lipid Raft Purification. Isolation of lipid rafts or glycosphingolipid-enriched membrane microdomains from T cells was performed by small scale ultracentrifugation. In brief, 20 million cells were homogenized in 250 μl ice-cold lysis buffer (50 mM Hepes, pH 7.4, 100 mM NaCl, 5 mM EDTA, […], 10 mM sodium pyrophosphate, 1 mM Na3VO4, 50 mM NaF, 1 mM PMSF, and protease inhibitors) by 10 pestle strokes in a Dounce homogenizer, loaded at the bottom of a 40 to 50 sucrose gradient and centrifuged at 200,000 g for 5 h. 80 μl fractions were collected from the top. The fractions were analysed by immunoblot analysis. LAT was used as a marker for lipid raft fractions. […]
Lipid rafts were purified from isolated human peripheral blood T cells treated with MEME3-Arg11 or SM3-Arg11 for 12 hours, followed by 10% PAGE and blotting onto a PVDF membrane and immunoblotting (FIG. 18, left panel). The PKA content was measured by densitometry of immunoblots (n=4). […] The very weak signal observed after immunoblotting using antibodies against RIIα (data not shown) was measured by densitometry of the autoradiogram. […]

PKA-RIIα = PKA-RIIα (Homo sapiens, UniProt P13861); assay: Immunofluorescence of PKA-RIIα at centrosomes in human T cells; assay type: cell-based; design: endogenous in cells; host or cells: human peripheral blood CD3+ T cells; settings: human peripheral blood T cells
Sequence of PKA-RIIα (P13861 whole entry): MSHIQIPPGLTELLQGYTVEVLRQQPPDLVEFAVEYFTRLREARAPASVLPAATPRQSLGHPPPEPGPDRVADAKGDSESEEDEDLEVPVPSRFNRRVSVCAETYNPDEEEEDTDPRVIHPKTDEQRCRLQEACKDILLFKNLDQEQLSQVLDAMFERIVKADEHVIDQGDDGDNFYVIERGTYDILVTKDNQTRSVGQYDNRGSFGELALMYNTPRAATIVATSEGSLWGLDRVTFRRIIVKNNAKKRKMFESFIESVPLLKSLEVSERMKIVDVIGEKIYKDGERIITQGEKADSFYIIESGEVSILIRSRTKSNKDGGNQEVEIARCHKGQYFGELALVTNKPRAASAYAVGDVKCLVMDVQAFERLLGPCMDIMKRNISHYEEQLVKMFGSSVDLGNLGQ
Description: Blots were developed by using Supersignal West Pico substrate (Pierce). For immunofluorescence polyclonal and monoclonal antibodies against RIα (Biogenesis), RIIα (Transduction laboratories) and AKAP450 (A24, Tasken et al., 2001, J. Biol. Chem, 276:21999-22002) were used as primary antibodies. Secondary antibodies (all Molecular Probes) were Alexa-488 conjugated anti-mouse and anti-rabbit IgG (both goat) and Alexa-555 anti-rabbit IgG (goat).
Immunofluorescence analysis of cells was performed as previously described (Collas, P. et al., 1996, J. Cell Biol. 135, 1715-1725). RI was detected by using an anti-RI monoclonal antibody (Transduction Laboratories) as a primary antibody at a […] and Alexa-488 as a secondary antibody (1:600, Goat anti Mouse IgGs, Molecular Probes). Immunofluorescence was performed on Y1 cells attached to collagen/fibronectin coated coverslips. Mitochondria were stained using MitoTracker Red CMXRos (Molecular Probes) in fresh medium with incubation at 37° C. for 30 min prior to cell fixation. All cells were washed in PBS, fixed with 3% paraformaldehyde and permeabilised using 0.1% Triton X-100. […] Alternatively, fluorescently labeled cells were examined using a Leica TCS SP1 confocal fluorescence microscope (Leica, Heidelberg, Germany) equipped with an Ar (488 nm) and two He/Ne (543 and 633 nm) laser lines. […]

LEQYANQLADQIIKEATERRRRRRRRRrr [MEME3-Arg11]
reduction of PKA type I in lipid rafts ([1]; 10 μM): 80% | reduction of RI and C concentration in lipid rafts compared to SM3 ([1]; 10 μM, primary human T cells): 80% | reduction of PKA type I in lipid rafts ([1]; 25 μM): 90% | displacement of PKA-RIIα from centrosomes (PKA-RIIα): no displacement of PKA-RIIα
